Laboratory results published in paper PMC5926251 (Japanese Journal of Cancer Research : Gann, 2000).
“And” between values parts separate entries of the source, which are not always exact repeats. Equal values may be shown once. Read-outs that look alike come from different tables or passages of the source.

How the values were obtained:
DNA polymerase α [1] = biological target: T1, DNA polymerase α (Bos taurus, UniProt A0AAA9TD94); experiment: DNA polymerase assay, pol. α; format: biochemical, calf; settings: for IC50: 50%-inhibitory concentration; for IC50 / MIC Pol. α: Table I; for MIC Pol. α: Minimum inhibitory concentration: dose that resulted in inhibition of 80% or more of the activity; for Relative activity: Pol. α, Table III
T1 sequence (A0AAA9TD94 1-1441): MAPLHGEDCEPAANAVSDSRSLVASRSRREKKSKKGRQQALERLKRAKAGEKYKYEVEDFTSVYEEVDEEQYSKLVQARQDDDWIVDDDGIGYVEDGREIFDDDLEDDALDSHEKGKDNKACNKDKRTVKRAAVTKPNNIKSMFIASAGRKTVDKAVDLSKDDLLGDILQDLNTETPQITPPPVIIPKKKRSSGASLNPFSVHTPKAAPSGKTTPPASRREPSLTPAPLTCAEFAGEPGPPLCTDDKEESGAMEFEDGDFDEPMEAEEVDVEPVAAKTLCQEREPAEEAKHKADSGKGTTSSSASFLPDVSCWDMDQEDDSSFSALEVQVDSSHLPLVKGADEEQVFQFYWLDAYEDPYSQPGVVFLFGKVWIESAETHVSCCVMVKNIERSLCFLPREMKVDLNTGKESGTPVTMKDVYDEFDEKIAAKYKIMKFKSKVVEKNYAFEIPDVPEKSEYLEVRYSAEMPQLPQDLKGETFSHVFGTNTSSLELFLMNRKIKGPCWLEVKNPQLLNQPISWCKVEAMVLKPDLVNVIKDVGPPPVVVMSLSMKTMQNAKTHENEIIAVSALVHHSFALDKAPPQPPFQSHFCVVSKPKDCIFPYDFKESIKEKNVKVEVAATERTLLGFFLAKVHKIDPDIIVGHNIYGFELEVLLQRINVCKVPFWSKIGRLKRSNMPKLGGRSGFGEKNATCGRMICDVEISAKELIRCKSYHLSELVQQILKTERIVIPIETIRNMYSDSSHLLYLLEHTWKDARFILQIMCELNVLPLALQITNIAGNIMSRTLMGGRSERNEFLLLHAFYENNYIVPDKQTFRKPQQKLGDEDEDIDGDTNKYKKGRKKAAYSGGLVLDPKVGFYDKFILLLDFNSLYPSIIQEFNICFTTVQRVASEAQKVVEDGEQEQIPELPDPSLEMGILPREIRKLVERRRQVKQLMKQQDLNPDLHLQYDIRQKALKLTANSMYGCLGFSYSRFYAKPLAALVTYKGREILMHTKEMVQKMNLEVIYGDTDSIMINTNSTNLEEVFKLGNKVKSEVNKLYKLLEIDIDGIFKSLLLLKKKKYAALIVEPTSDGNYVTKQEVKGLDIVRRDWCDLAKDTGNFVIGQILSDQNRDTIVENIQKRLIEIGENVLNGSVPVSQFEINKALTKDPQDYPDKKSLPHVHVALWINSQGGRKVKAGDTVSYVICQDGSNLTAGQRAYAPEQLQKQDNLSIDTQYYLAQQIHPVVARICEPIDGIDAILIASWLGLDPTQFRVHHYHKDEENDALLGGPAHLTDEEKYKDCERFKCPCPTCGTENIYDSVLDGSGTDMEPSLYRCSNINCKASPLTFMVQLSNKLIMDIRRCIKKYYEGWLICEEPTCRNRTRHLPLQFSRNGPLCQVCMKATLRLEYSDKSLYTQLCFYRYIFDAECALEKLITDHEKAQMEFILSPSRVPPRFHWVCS

DNA polymerase β [2] = biological target: T2, DNA polymerase β (Rattus norvegicus, UniProt P06766); experiment: DNA polymerase assay, pol. β; format: biochemical; settings: for MIC Pol. β: Minimum inhibitory concentration: dose that resulted in inhibition of 80% or more of the activity; for Relative activity: Pol. β, Table III
DNA polymerase β [3] = biological target: T2, DNA polymerase β; experiment: Kinetic analysis of pol. β inhibition; format: biochemical; settings: for Inhibitory mode: from Lineweaver Burk plot
E. coli DNA polymerase I = E. coli DNA polymerase I (Escherichia coli, UniProt P00582); experiment: E. coli DNA polymerase I activity assay; format: biochemical; settings: 20 µM compound, 0.05 units enzyme; Fig. 3
Chain of E. coli DNA polymerase I (P00582 whole entry): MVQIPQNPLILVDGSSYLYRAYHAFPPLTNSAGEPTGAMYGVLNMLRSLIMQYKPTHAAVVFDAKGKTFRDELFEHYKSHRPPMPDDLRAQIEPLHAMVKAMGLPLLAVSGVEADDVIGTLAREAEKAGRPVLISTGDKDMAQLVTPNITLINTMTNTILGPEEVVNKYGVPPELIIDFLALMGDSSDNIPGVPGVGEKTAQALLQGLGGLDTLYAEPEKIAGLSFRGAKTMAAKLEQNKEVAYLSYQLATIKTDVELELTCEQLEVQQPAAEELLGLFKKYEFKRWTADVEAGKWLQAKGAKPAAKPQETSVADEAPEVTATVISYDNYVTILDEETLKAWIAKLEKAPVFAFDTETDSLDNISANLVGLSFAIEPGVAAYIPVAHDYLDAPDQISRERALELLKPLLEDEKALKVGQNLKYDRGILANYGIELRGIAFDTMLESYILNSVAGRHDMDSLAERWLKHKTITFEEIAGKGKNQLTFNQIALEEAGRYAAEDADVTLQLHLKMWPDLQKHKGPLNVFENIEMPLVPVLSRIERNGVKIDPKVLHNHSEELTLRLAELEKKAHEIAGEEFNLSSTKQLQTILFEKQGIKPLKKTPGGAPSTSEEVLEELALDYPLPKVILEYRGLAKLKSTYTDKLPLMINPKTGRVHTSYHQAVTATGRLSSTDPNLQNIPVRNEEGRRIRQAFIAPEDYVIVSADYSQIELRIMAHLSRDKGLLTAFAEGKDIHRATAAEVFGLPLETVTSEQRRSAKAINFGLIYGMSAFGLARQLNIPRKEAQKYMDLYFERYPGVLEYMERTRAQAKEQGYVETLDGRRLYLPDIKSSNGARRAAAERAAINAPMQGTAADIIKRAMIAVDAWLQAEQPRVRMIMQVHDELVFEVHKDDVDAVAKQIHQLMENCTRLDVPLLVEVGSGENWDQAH

T4 DNA polymerase = biological target: T3, T4 DNA polymerase (Enterobacteria phage T4, UniProt P04415); experiment: T4 DNA polymerase activity assay; format: biochemical; settings: 20 µM compound, 0.05 units enzyme; Fig. 3
T3 sequence (P04415 1-898): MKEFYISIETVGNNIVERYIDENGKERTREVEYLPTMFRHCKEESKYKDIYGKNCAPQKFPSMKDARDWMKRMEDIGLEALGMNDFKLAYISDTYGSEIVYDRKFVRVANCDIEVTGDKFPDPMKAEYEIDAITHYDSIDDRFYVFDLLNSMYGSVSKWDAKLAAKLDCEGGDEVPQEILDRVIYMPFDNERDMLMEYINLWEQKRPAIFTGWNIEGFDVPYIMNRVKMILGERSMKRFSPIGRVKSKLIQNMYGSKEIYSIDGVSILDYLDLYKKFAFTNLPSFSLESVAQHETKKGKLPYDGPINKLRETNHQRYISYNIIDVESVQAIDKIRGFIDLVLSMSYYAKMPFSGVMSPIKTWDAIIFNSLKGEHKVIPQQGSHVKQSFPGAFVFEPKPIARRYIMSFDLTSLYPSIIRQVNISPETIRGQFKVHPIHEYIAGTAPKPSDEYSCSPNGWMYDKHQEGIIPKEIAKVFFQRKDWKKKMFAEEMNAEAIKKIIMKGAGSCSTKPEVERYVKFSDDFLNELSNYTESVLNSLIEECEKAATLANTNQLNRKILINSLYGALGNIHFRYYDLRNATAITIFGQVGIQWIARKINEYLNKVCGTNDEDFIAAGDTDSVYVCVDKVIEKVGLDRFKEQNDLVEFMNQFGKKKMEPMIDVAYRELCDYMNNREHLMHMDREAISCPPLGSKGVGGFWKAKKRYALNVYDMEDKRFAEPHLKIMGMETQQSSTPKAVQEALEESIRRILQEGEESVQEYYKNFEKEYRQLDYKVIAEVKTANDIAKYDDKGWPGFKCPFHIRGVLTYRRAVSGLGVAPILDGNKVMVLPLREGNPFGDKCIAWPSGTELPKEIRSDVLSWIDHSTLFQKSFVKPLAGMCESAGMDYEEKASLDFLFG

calf thymus TdT = calf thymus TdT (Bos taurus, UniProt P06526); experiment: TdT activity assay; format: biochemical; settings: 20 µM compound, 0.05 units enzyme; Fig. 3
Chain of calf thymus TdT (P06526 whole entry): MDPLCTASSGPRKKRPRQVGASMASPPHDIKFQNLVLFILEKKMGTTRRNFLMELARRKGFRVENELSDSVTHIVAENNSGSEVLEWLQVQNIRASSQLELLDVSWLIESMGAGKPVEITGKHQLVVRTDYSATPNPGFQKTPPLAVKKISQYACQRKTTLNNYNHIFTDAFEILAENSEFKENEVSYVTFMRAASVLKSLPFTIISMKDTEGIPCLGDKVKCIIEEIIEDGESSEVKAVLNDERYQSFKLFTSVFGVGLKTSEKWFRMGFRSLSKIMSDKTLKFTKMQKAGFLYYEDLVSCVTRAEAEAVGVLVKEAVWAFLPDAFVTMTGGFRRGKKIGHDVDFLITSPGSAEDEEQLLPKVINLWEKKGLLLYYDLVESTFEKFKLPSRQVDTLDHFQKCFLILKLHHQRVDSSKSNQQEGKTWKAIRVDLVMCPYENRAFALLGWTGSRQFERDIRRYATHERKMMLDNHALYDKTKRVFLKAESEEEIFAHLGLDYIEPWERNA

T7 RNA polymerase = T7 RNA polymerase (Escherichia phage T7, UniProt P00573); settings: 20 µM compound, 0.05 units enzyme; Fig. 3
Chain of T7 RNA polymerase (P00573 whole entry): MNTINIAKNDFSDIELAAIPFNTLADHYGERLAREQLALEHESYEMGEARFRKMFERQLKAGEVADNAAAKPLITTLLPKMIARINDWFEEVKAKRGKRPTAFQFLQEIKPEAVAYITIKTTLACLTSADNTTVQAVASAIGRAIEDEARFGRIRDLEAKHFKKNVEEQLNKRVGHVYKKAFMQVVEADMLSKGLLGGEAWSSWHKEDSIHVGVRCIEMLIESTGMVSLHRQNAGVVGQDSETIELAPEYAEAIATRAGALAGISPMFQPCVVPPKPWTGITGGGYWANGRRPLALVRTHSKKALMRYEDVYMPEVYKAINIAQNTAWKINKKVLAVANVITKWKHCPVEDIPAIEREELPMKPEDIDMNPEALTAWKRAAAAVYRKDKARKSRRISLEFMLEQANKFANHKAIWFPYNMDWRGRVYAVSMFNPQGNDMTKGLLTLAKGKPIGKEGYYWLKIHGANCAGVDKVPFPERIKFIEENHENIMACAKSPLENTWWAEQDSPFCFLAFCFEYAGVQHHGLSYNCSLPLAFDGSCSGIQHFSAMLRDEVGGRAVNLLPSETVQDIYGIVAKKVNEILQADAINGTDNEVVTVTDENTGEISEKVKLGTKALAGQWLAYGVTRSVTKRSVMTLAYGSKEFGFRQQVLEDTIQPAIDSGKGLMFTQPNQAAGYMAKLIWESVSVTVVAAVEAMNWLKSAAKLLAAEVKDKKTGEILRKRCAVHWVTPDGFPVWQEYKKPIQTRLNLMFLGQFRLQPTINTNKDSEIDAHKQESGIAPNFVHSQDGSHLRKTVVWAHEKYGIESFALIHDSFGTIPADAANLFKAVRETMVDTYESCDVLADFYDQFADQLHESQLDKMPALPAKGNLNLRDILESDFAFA

[4] = biological target: Bovine pancreas deoxyribonuclease I (Bos taurus, UniProt P00639); experiment: Deoxyribonuclease I activity assay; format: biochemical; settings: 20 µM compound, 0.05 units enzyme; Fig. 3
Chain of Bovine pancreas deoxyribonuclease I (P00639 23-282): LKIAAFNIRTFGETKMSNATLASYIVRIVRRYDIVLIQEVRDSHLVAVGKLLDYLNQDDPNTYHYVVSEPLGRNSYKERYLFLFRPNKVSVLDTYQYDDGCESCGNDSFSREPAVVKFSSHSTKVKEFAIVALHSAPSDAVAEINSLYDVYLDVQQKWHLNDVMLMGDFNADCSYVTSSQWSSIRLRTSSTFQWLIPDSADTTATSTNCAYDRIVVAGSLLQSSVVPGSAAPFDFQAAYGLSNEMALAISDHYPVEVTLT

DNA polymerase α [5] = biological target: T1, DNA polymerase α; experiment: Kinetic analysis of pol. α inhibition; format: biochemical, calf; settings: for Inhibitory mode: from Lineweaver Burk plot
T4 polynucleotide kinase = T4 polynucleotide kinase (Enterobacteria phage T4, UniProt P06855); settings: 20 µM compound, 0.05 units enzyme; Fig. 3
Chain of T4 polynucleotide kinase (P06855 whole entry): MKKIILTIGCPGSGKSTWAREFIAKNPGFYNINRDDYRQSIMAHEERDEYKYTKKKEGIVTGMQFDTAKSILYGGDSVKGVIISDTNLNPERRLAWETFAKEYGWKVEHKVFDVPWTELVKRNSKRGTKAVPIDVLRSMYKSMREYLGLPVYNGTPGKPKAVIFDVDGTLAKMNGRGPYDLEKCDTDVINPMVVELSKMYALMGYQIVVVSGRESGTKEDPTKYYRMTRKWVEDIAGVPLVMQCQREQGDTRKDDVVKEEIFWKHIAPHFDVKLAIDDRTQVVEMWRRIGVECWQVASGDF

Taq DNA polymerase = Taq DNA polymerase (Thermus aquaticus, UniProt P19821); experiment: Taq DNA polymerase activity assay; format: biochemical; settings: 20 µM compound, 0.05 units enzyme; Fig. 3
Chain of Taq DNA polymerase (P19821 whole entry): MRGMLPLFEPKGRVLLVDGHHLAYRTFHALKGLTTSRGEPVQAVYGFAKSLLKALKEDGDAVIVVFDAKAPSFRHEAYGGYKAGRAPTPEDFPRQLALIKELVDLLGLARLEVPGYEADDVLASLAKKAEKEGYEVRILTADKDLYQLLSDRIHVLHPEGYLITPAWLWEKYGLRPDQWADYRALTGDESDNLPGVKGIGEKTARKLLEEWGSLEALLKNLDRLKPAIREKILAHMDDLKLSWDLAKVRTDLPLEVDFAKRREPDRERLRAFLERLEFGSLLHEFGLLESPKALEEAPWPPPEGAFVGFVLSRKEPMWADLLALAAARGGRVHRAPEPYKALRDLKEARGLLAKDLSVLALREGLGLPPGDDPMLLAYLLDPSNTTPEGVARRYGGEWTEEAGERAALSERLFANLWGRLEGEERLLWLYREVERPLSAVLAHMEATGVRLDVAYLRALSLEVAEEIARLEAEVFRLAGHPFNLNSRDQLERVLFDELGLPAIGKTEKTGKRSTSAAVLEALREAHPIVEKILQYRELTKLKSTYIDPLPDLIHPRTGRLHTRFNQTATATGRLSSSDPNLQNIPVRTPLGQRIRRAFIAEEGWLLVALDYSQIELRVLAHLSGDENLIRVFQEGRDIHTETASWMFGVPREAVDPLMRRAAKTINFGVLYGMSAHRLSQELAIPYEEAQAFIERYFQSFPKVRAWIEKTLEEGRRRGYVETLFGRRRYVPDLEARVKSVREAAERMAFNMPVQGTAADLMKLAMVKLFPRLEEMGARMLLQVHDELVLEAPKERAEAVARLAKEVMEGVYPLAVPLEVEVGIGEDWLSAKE

[6] = biological target: HIV-1 reverse transcriptase (Human immunodeficiency virus type 1 group M subtype B, UniProt P03366); experiment: HIV-1 reverse transcriptase activity assay; format: biochemical; settings: 20 µM compound, 0.05 units enzyme; Fig. 3
[7] = read-out: IC50 Pol. β, 50%-inhibitory concentration, Table I
[8] = nucleotide substrate dTTP, from Dixon plot
[9] = template-primer poly(dA)/oligo(dT)12-18, from Dixon plot
[10] = versus nucleotide substrate dTTP

Q: `O=S(=O)(O)C[C@H]1O[C@H](OCC(O)CO)[C@H](O)[C@@H](O)[C@@H]1O` (stereo partly shown) [I&II&III + Quinovose + -] was tested. Which IC50 (DNA polymerase α [1]; read-out: IC50 Pol. α) did it give?
A: Its IC50 is greater than 1000 µM.

Q: What about the IC50 (DNA polymerase β [2]; [7]) of the same compound?
A: Its IC50 is greater than 1000 µM.

Q: Which results are given for `C[C@@H]1OC(O)[C@H](O)[C@H](O)[C@H]1O` (stereo partly shown) [II - Rhamnose - -, Rhamnose]?
A: IC50 (DNA polymerase α [1]; read-out: IC50 Pol. α): > 1000 µM; IC50 (DNA polymerase β [2]; [7]): > 1000 µM

Q: How did the MIC Pol. α (DNA polymerase α [1]) turn out when `CCCCCCCCCCCCCCCC(=O)OC[C@@H](O)CO[C@H]1O[C@H](CS(=O)(=O)O)[C@@H](O)[C@H](O)[C@H]1O` [C16--SQMG] was run?
A: Its MIC Pol. α is 9.1 µM and 14 µM.

Q: What about the IC50 (DNA polymerase α [1]; read-out: IC50 Pol. α) of the same compound?
A: The IC50 was 4 µM and 5.9 µM.

Q: What about the MIC Pol. β (DNA polymerase β [2]; Table I) of the same compound?
A: The MIC Pol. β was 43 µM and 46 µM.

Q: And the IC50 (DNA polymerase β [2]; [7])?
A: The IC50 was 34 µM and 36 µM.

Q: How did the MIC Pol. α (DNA polymerase α [1]) turn out when `CCCCCCCCCCCCCCCC(=O)OC[C@H](CO[C@H]1O[C@H](CS(=O)(=O)O)[C@@H](O)[C@H](O)[C@H]1O)OC(=O)CCCCCCCCCCCCCCC` [C16--SQDG] was run?
A: Its MIC Pol. α is 3.4 µM and 3.6 µM.

Q: What about the MIC Pol. β (DNA polymerase β [2]; Table I) of the same compound?
A: The MIC Pol. β was 45 µM and 46 µM.

Q: What about the IC50 (DNA polymerase β [2]; [7]) of the same compound?
A: The IC50 was 25 µM.

Q: What does the source list for `CCCCCCCCCCCCCCCCCC(=O)OC[C@H](CO[C@H]1O[C@H](CS(=O)(=O)O)[C@@H](O)[C@H](O)[C@H]1O)OC(=O)CCCCCCCCCCCCCCCCC` [C18--SQDG]?
A: Ki (DNA polymerase β [3]; [8]): 36 µM; Vmax (DNA polymerase β [3]; nucleotide substrate dTTP, one value printed for all sulfolipid conc.): 38 pmol/h; Ki (DNA polymerase β [3]; [9]): 5 µM; Inhibitory mode (DNA polymerase β [3]; [10]): Competitive; Inhibitory mode (DNA polymerase β [3]; versus template-primer): Competitive; Effect on E. coli DNA polymerase I activity (E. coli DNA polymerase I): hardly affected; Effect on T4 DNA polymerase activity (T4 DNA polymerase): hardly affected; Effect on TdT activity (calf thymus TdT): inhibited; Effect on T7 RNA polymerase activity (T7 RNA polymerase): hardly affected; Effect on deoxyribonuclease I activity [4]: hardly affected; MIC Pol. α (DNA polymerase α [1]): 1.1 µM and 1.2 µM; Relative activity (DNA polymerase α [1]; 2 µM compound + 40 µM poly(rC)): 12%; Relative activity (DNA polymerase α [1]; 2 µM compound + 0.05% NP-40): 15%; Relative activity (DNA polymerase α [1]; 2 µM compound + 80 g/ml BSA): 16%; Relative activity (DNA polymerase α [1]; 2 µM compound alone): 10%; IC50 (DNA polymerase α [1]; read-out: IC50 Pol. α): 0.4 µM; Ki (DNA polymerase α [5]; [8]): 0.6 µM; Vmax (DNA polymerase α [5]; nucleotide substrate dTTP, sulfolipid conc. 0.2): 170 pmol/h; Vmax (DNA polymerase α [5]; nucleotide substrate dTTP, sulfolipid conc. 0.4): 100 pmol/h; Vmax (DNA polymerase α [5]; nucleotide substrate dTTP, sulfolipid conc. 0.6): 56 pmol/h; Ki (DNA polymerase α [5]; [9]): 0.2 µM; Vmax (DNA polymerase α [5]; template-primer, sulfolipid conc. 0.2): 100 pmol/h; Vmax (DNA polymerase α [5]; template-primer, sulfolipid conc. 0.4): 56 pmol/h; Vmax (DNA polymerase α [5]; template-primer, sulfolipid conc. 0.6): 40 pmol/h; Inhibitory mode (DNA polymerase α [5]; [10]): Non-competitive; Inhibitory mode (DNA polymerase α [5]; versus template-primer): Non-competitive; Effect on T4 polynucleotide kinase activity (T4 polynucleotide kinase): hardly affected; Effect on Taq DNA polymerase activity (Taq DNA polymerase): hardly affected; MIC Pol. β (DNA polymerase β [2]; Table I): 60 µM and 62 µM; Relative activity (DNA polymerase β [2]; 20 µM compound + 40 µM poly(rC)): 59%; Relative activity (DNA polymerase β [2]; 20 µM compound + 0.05% NP-40): 101%; Relative activity (DNA polymerase β [2]; 20 µM compound + 80 g/ml BSA): 63%; Relative activity (DNA polymerase β [2]; 20 µM compound alone): 65%; IC50 (DNA polymerase β [2]; [7]): 37 µM and 43 µM; Effect on HIV-1 reverse transcriptase activity [6]: moderate inhibitory effect

Q: What does the source list for `C[C@H](O)[C@@H](O)[C@@H](O)[C@H](O)C=O` [II - Fucose - -, Fucose]?
A: IC50 (DNA polymerase α [1]; IC50 Pol. α): > 1000 µM; IC50 (DNA polymerase β [2]): > 1000 µM

Q: Which results are given for `C[C@@H]1OC(OCC(O)CO)[C@H](O)[C@H](O)[C@H]1O` (stereo partly shown) [II&III - Rhamnose + -]?
A: IC50 (DNA polymerase α [1]; read-out: IC50 Pol. α): > 1000 µM; IC50 (DNA polymerase β [2]; [7]): > 1000 µM

Q: With `CCCCCCCCCCCCCC(=O)OCC(O)CO` (stereo not shown) [III&IV - - + Myristic acid (14:0)/H] as the compound, how does the MIC Pol. α (DNA polymerase α [1]) read?
A: Its MIC Pol. α is greater than 1000 µM.

Q: What about the IC50 (DNA polymerase α [1]; read-out: IC50 Pol. α) of the same compound?
A: Its IC50 is 750 µM.

Q: And the IC50 (DNA polymerase β [2]; [7])?
A: The IC50 was greater than 1000 µM.

Q: With `O=S(=O)(O)C[C@@H]1OC(OCC(O)CO)[C@@H](O)[C@H](O)[C@@H]1O` (stereo partly shown) [I&II&III + Fucose + -] as the compound, how does the IC50 (DNA polymerase α [1]; read-out: IC50 Pol. α) read?
A: Its IC50 is greater than 1000 µM.

Q: What about the IC50 (DNA polymerase β [2]; [7]) of the same compound?
A: Its IC50 is greater than 1000 µM.
